According to publication PMC3973950, “Synthesis of 5-arylidine amino-1,3,4-thiadiazol-2-[(N-substituted benzyol)]sulphonamides endowed with potent antioxidants and anticancer activity induces growth inhibition in HEK293, BT474 and NCI-H226 cells” (Medicinal Chemistry Research, 2013):

Key:
[1] = In vitro cytotoxicity by MTT assay, NCI-H226; format: cell-based; settings: human, NCI-H226 lung cancer cells, 0.015 μM, read-out: % Cytotoxicity (100 − % cell survival) of NCI-H226 cell line
Method in brief: (§1)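 Monolayers seeded at […] (about 10,000 per well) were treated after 24 h with the synthesized compounds and incubated three days. Viability was taken from MTT reduction, with formazan measured at 490 nm.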

[2] = tested on: NCI-H226 (lung cancer cell line); assay: In vitro cytotoxicity by MTT assay, NCI-H226; format: cell-based; settings: Homo sapiens, 72 h, read-out: % Cytotoxicity (100 − % cell survival) of NCI-H226 cell line; for cytotoxicity at 0.005 µM: NCI-H226, 0.005 μM; for cytotoxicity at 0.045 µM: NCI-H226, 0.045 μM; for cytotoxicity at 0.13 µM: NCI-H226, 0.13 μM; for cytotoxicity at 0.41 µM: NCI-H226, 0.41 μM; for cytotoxicity at 1.23 µM: NCI-H226, 1.23 μM; for cytotoxicity at 3.7 µM: NCI-H226, 3.7 μM; for cytotoxicity at 11.11 µM: NCI-H226, 11.11 μM; for cytotoxicity at 33.33 µM: NCI-H226, 33.33 μM; for cytotoxicity at 100 µM: NCI-H226, 100 μM
Method in brief: as §1

[3] = In vitro cytotoxicity by MTT assay, HEK 293; format: cell-based, human; settings: human, HEK 293 cells, read-out: % cytotoxicity (100 − % cell survival) of HEK 293 cell line
Method in brief: as §1

[4] = tested on: BT474 (breast cancer cell line); assay: In vitro cytotoxicity by MTT assay, BT474; format: cell-based; settings: Homo sapiens, 72 h, read-out: % cytotoxicity (100 − % cell survival) of BT474 cell line; for cytotoxicity at 0.005 µM: BT-474, 0.005 μM; for cytotoxicity at 0.015 µM: BT-474, 0.015 μM; for cytotoxicity at 0.045 µM: BT-474, 0.045 μM; for cytotoxicity at 0.13 µM: BT-474, 0.13 μM; for cytotoxicity at 0.41 µM: BT-474, 0.41 μM; for cytotoxicity at 1.23 µM: BT-474, 1.23 μM; for cytotoxicity at 3.7 µM: BT-474, 3.7 μM; for cytotoxicity at 11.11 µM: BT-474, 11.11 μM; for cytotoxicity at 33.33 µM: BT-474, 33.33 μM; for cytotoxicity at 100 µM: BT-474, 100 μM
Method in brief: as §1

Row | SMILES | cytotoxicity at 72 h, 0.015 µM [1] [%] | cytotoxicity at 0.005 µM [2] [%] | cytotoxicity at 0.045 µM [2] [%] | cytotoxicity at 0.13 µM [2] [%] | cytotoxicity at 0.41 µM [2] [%] | cytotoxicity at 1.23 µM [2] [%] | cytotoxicity at 3.7 µM [2] [%] | cytotoxicity at 11.11 µM [2] [%] | cytotoxicity at 33.33 µM [2] [%] | cytotoxicity at 100 µM [2] [%] | cytotoxicity at 72 h, 0.005 µM [3] [%] | cytotoxicity at 72 h, 0.015 µM [3] [%] | cytotoxicity at 72 h, 0.045 µM [3] [%] | cytotoxicity at 72 h, 0.13 µM [3] [%] | cytotoxicity at 72 h, 0.41 µM [3] [%] | cytotoxicity at 72 h, 1.23 µM [3] [%] | cytotoxicity at 72 h, 3.7 µM [3] [%] | cytotoxicity at 72 h, 11.11 µM [3] [%] | cytotoxicity at 72 h, 33.33 µM [3] [%] | cytotoxicity at 72 h, 100 µM [3] [%] | other results
1 | CC(=O)Nc1ccc(S(=O)(=O)Nc2nnc(S(=O)(=O)NC(=O)c3ccc(Cl)cc3)s2)cc1 [Compound 6g] | 35 | 33.5 | 36.8 | 37.3 | 39.8 | 40.6 | 41.3 | 42.6 | 43.2 | 46 | 15.1 | 16.5 | 18 | 18.3 | 20.1 | 20.8 | 24.2 | 26.1 | 28.7 | 32 | cytotoxicity at 0.005 µM [4]: 30.5%; cytotoxicity at 0.015 µM [4]: 32.8%; cytotoxicity at 0.045 µM [4]: 33.9%; cytotoxicity at 0.13 µM [4]: 34.1%; cytotoxicity at 0.41 µM [4]: 37.6%; cytotoxicity at 1.23 µM [4]: 38.2%; cytotoxicity at 3.7 µM [4]: 39.5%; cytotoxicity at 11.11 µM [4]: 42.4%; cytotoxicity at 33.33 µM [4]: 44.2%; cytotoxicity at 100 µM [4]: 46.4%
2 | Nc1ccc(S(=O)(=O)Nc2nnc(S(=O)(=O)NC(=O)c3ccccc3)s2)cc1 [Compound 7a] | 28.4 | 27.4 | 29.2 | 29.4 | 30.4 | 32.2 | 34.5 | 35.1 | 36.2 | 36.9 | 23.7 | 25.8 | 26.4 | 28.6 | 30.2 | 32.5 | 32.5 | 33.5 | 34.1 | 35.7 | cytotoxicity at 0.005 µM [4]: 34.1%; cytotoxicity at 0.015 µM [4]: 35%; cytotoxicity at 0.045 µM [4]: 36.7%; cytotoxicity at 0.13 µM [4]: 37.8%; cytotoxicity at 0.41 µM [4]: 38.2%; cytotoxicity at 1.23 µM [4]: 39.5%; cytotoxicity at 3.7 µM [4]: 40.7%; cytotoxicity at 11.11 µM [4]: 41.8%; cytotoxicity at 33.33 µM [4]: 43.7%; cytotoxicity at 100 µM [4]: 46.3%
3 | Nc1ccc(S(=O)(=O)Nc2nnc(S(=O)(=O)NC(=O)c3ccccc3N)s2)cc1 [Compound 7b] | 33.6 | 33.5 | 35.5 | 37 | 37.4 | 38.8 | 39.1 | 40.6 | 41.1 | 42.4 | 37.8 | 39.2 | 40.5 | 44 | 45.3 | 46.5 | 47.8 | 48.2 | 50.7 | 51.9 | cytotoxicity at 0.005 µM [4]: 27.4%; cytotoxicity at 0.015 µM [4]: 28.1%; cytotoxicity at 0.045 µM [4]: 29.5%; cytotoxicity at 0.13 µM [4]: 30.2%; cytotoxicity at 0.41 µM [4]: 31.4%; cytotoxicity at 1.23 µM [4]: 32.2%; cytotoxicity at 3.7 µM [4]: 33.3%; cytotoxicity at 11.11 µM [4]: 34.6%; cytotoxicity at 33.33 µM [4]: 35.5%; cytotoxicity at 100 µM [4]: 36.6%
4 | Nc1ccc(C(=O)NS(=O)(=O)c2nnc(NS(=O)(=O)c3ccc(N)cc3)s2)cc1 [Compound 7c] | 34 | 33.2 | 34.8 | 36.6 | 37.8 | 38 | 38.2 | 38.6 | 38.9 | 40.3 | 36.5 | 38.2 | 40.6 | 42.7 | 43.4 | 45.3 | 47.1 | 49.1 | 49.2 | 49.9 | cytotoxicity at 0.005 µM [4]: 18.8%; cytotoxicity at 0.015 µM [4]: 19.4%; cytotoxicity at 0.045 µM [4]: 19.8%; cytotoxicity at 0.13 µM [4]: 20.1%; cytotoxicity at 0.41 µM [4]: 21%; cytotoxicity at 1.23 µM [4]: 22.8%; cytotoxicity at 3.7 µM [4]: 24.2%; cytotoxicity at 11.11 µM [4]: 25.7%; cytotoxicity at 33.33 µM [4]: 26.4%; cytotoxicity at 100 µM [4]: 27.9%
